# Test results reported in patent US9932572B2, “Modified Caspase polypeptides and uses thereof” (BELLICUM PHARMACEUTICALS, INC., priority 2013, dated 2018).
# Changes are numbered by the printed parent chain. Names may count otherwise. Read-outs that look alike come from different tables or passages of the source.
# B1: N405Q: chimeric modified Caspase-9 polypeptide, SEQ ID NO: 26 (protein)
# chain: GFGDVGALESLRGNADLAYILSMEPCGHCLIINNVNFCRESGLRTRTGSNIDCEKLRRRFSSLHFMVEVKGDLTAKKMVLALLELARQDHGALDCCVVVILSHGCQASHLQFPGAVYGTDGCPVSVEKIVNIFNGTSCPSLGGKPKLFFIQACGGEQKDHGFEVASTSPEDESPGSNPEPDATPFQEGLRTFDQLDAISSLPTPSDIFVSYSTFPGFVSWRDPKSGSWYVETLDDIFEQWAHSEDLQSLLLRVANAVSVKGIYKQMPGCFQFLRKKLFFKTS
# B2: D330A-N405Q: chimeric modified Caspase-9 polypeptide, double mutant, SEQ ID NO: 28 (protein)
# chain: B1 chain with D196A
# B3: D330A: chimeric modified Caspase-9 polypeptide, SEQ ID NO: 24 (protein)
# chain: B1 chain with D196A, Q271N
# Legend:
# [1] = cited from earlier work
# [2] = target: chimeric Caspase-9 polypeptide (Homo sapiens, UniProt P62942, F37V); conditions: cited from earlier work
# chimeric Caspase-9 polypeptide, sequence (P62942 2-108 F37V limits assumed): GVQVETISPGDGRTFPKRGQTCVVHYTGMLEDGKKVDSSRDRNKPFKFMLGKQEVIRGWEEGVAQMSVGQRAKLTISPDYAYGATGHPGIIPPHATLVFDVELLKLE
# CD3+ΔCD19+ cells = assay: CASPALLO phase 1 clinical trial, AP1903 in patients with GvHD after iCasp9+ T cells; assay type: in vivo, human; conditions: after AP1903 administration
# From the text: Three patients received iCasp9+ T cells after haplo-CD34^+ stem cell transplantation (SCT), at dose levels between about 1×10^6 to about 3×10^6 cells/kg.
# non-transduced cells = assay: Viability of non-transduced cells with AP20187; assay type: cell-based, human; conditions: non-transduced cells (n=6)
# Procedure: (§1) Suicide gene functionality was assessed by adding a small molecule synthetic homodimerizer, AP20187 (Ariad Pharmaceuticals; Cambridge, Mass.), at 10 nM final concentration the day following CD19 immunomagnetic selection. Cells were stained with annexin V and 7-amino-actinomycin (7-AAD)(BD Pharmingen) at 24 hours and analyzed by flow cytometry. Cells negative for both Annexin V and 7-AAD were considered viable, cells that were annexin V positive were apoptotic, and cells that were both annexin V and 7-AAD positive were necrotic. The percentage killing induced by dimerization was corrected for baseline viability as follows: Percentage killing=100%−(% Viability in AP20187-treated cells÷% Viability in non-treated cells).
# iCasp9-transduced MSCs = assay: Apoptosis studies in vitro, undifferentiated MSCs (annexin V-PE/7-AAD); assay type: cell-based, human; conditions: magnetically immunoselected iCasp9-CD19-positive cells after exposure to CID
# Procedure: Undifferentiated MSCs. The chemical inducer of dimerization (CID) (AP20187; ARIAD Pharmaceuticals, Cambridge, Mass.) was added at 50 nM to iCasp9-transduced MSCs cultures in complete medium. Apoptosis was evaluated 24 hours later by FACS analysis, after cell harvest and staining with annexin V-PE and 7-AAD in annexin V binding buffer (BD Biosciences, San Diego, Calif.). Control iCasp9-transduced MSCs were maintained in culture without exposure to CID.
# [3] = test system: iCasp9-ΔCD19-transduced MSCs; assay: In vivo killing of MSCs in SCID mouse model (qPCR); set-up: species or system SCID mice
# [4] = test system: iCasp9M.IRES.GFPhigh-transduced CTLs; assay: SCID mouse-human xenograft model, human CD3+/GFP+ T cells in tumors; assay type: in vivo, NOD/SCID mice; conditions: single dose of CID (50 μg AP20187 i.p.) vs carrier; tumors 3 days after
# Procedure: Non-obese diabetic severe combined immunodeficient (NOD/SCID) mice, 6 to 8 weeks of age, were irradiated (250 rad) and injected subcutaneously in the right flank with 10×10^6 to 15×10^6 LCLs resuspended in Matrigel (BD Bioscience). Two weeks later mice bearing tumors that were approximately 0.5 cm in diameter were injected into the tail vein with a 1:1 mixture of nontransduced and iCasp9.I.GFPhigh-transduced EBV CTLs (total 15×10^6). At 4 to 6 hours prior and 3 days after CTL infusion, mice were injected intraperitoneally with recombinant hIL-2 (2000 U; Proleukin; Chiron). On day 4, the mice were randomly segregated in 2 groups: 1 group received CID (50 μg AP20187, intraperitoneally) and 1 group received carrier only (16.7% propanediol, 22.5% PEG400, and 1.25% Tween 80, intraperitoneally). […] By FACS analysis, the number of GFP+ cells within the gated CD3^+ population was evaluated. […]
# The function of iCasp9M in vivo, is graphically illustrated in FIG. 7. […] On day 3 after CTL administration, mice received either CID (50 μg AP20187; (black diamonds, n=6) or carrier only (black squares, n=5) and on day 6 the presence of human CD3+/GFP+ T cells in the tumors was analyzed. Human CD3+ T cells isolated from the tumors of a control group of mice that received only nontransduced CTLs (15×10^6 CTLs; n=4) were used as a negative control for the analysis of CD3+/GFP+ T cells within the tumors.
# [5] = test system: gene-modified allodepleted cells; assay: Induction of apoptosis with AP20187 in gene-modified allodepleted cells (annexin V/7-AAD); assay type: cell-based, human
# Procedure: as §1
# Cells were maintained in T cell medium containing 50 U/ml IL-2 until 22 days after transduction. A portion of cells was reactivated on 24-well plates coated with […] OKT3 and 1 μg/ml anti-CD28 (Clone CD28.2, BD Pharmingen, San Jose, Calif.) for 48 to 72 hours. CD19 expression and suicide gene function in both reactivated and non-reactivated cells were measured on day 24 or 25 post transduction.
# HEK293T/16 cells = assay: Secreted alkaline phosphatase (SEAP) reporter-based surrogate killing assay; assay type: cell-based, human; conditions: for relative SEAP activity Units (basal activity): no AP1903, higher SEAP = lower basal activity; for basal signaling: compared to iCasp9 WT; for cost of higher IC50 to AP1903: versus unmodified iCasp9
# Procedure: FIG. 45 provides an analysis of SEAP assays. To examine both basal signaling and AP1903-induced activity, 10^6 early-passage HEK293T/16 cells were co-transfected with various amounts of plasmids expressing Caspase-9 mutants along with 500 ng of SEAP reporter plasmid, used as a surrogate marker for cell viability. […] of the mixture was seeded onto each well of a 96-well plate. […] For the assay, 4-MUP was hydrolyzed by SEAP to 4-methylumbelliferon, a metabolite that can be excited at 364 nm and detected at an emission of 448 nm. Because SEAP is used as a marker for cell viability, reduced SEAP readings correspond with increased iCaspase-9 activities.
# Early passage HEK293T/16 (ATCC, Manassas, Va.) was maintained in IMDM, GlutaMAX™ (Life Technologies, Carlsbad, Calif.) supplemented with 10% FBS, 100 U/mL penicillin, and 100 U/mL streptomycin until transfection in a humidified, 37° C., 5% CO2/95% air atmosphere. Cells in logarithmic-phase growth were transiently transfected with 800 ng to 2 μg of expression plasmid encoding iCasp9 mutants and 500 ng of an expression plasmid encoding SRα promoter driven SEAP per million cells in 15-mL conical tubes. […] GeneJammer® Transfection Reagent at a ratio of 3 μl per ug of plasmid DNA was used to transiently transfect HEK293T/16 in the absence of antibiotics. 100 μl or 2 mL of the transfection mixture was added to each well in 96-well or 6-well plate, respectively.
# Briefly, after 65° C. heat denaturation for 45 minutes to reduce background caused by endogenous (and serum-derived) alkaline phosphatases that are sensitive to heat, 5 μl of supernatants was added to 95 μl of PBS and added to 100 μl of substrate buffer, containing 1 μl of 100 mM 4-methylumbelliferyl phosphate (4-MUP; Sigma, St. Louis, Mo.) re-suspended in 2 M diethanolamine. Hydrolysis of 4-MUP by SEAP produces a fluorescent […] with excitation/emission (355/460 nm), which can be easily measured. Assays were performed in black opaque 96-well plates to minimize fluorescence leakage between wells (FIG. 45).
# [6] = 10 nM, 24 hours, day after immunomagnetic selection
molecule,measurement,setting,value
"CC[C@H](C(=O)N1CCCC[C@H]1C(=O)O[C@H](CCc1ccc(OC)c(OC)c1)c1cccc(OCC(=O)NCCNC(=O)COc2cccc([C@@H](CCc3ccc(OC)c(OC)c3)OC(=O)[C@@H]3CCCCN3C(=O)[C@@H](CC)c3cc(OC)c(OC)c(OC)c3)c2)c1)c1cc(OC)c(OC)c(OC)c1 (relative stereo) [AP1903, 2-Piperidinecarboxylic acid, 1-[(2S)-1-oxo-2-(3,4,5-trimethoxyphenyl)butyl]-, 1,2-ethanediylbis[imino(2-oxo-2,1-ethanediyl)oxy-3,1-phenylene[(1R)-3-(3,4-dimethoxyphenyl)propylidene]] ester, [2S-[1(R*),2R*[S*[S*[1(R*),2R*]]]]]-(9CI)]",safety / adverse effects in Phase I study,"[1]; 0.01 mg/kg to 1.0 mg/kg dose range, healthy volunteers, listed as API903",No serious adverse events
same,"plasma levels, % of maximal concentration",[1]; 2 hours post-dose,~7%
same,"plasma levels, % of maximal concentration",[1]; 10 hours post-dose,~1%
same,Doses well-tolerated,[1]; Phase I study,up to 1 mg/kg
same,amount of AP1903 needed in vitro for effective signaling of cells,[2],10 to 100 nM
same,resolution of skin and liver aGvHD,CD3+ΔCD19+ cells,≤ 24 h
CC[C@H](C(=O)N1CCCC[C@H]1C(=O)O[C@H](CCc1ccc(OC)c(OC)c1)c1cccc(OCC(=O)NCC(CNC(=O)COc2cccc([C@@H](CCc3ccc(OC)c(OC)c3)OC(=O)[C@@H]3CCCCN3C(=O)[C@@H](CC)c3cc(OC)c(OC)c(OC)c3)c2)CN(C)C)c1)c1cc(OC)c(OC)c(OC)c1 [AP20187],viability with AP20187,non-transduced cells,about 86%
same,selected cells become apoptotic,iCasp9-transduced MSCs,More than 95%
same,"proportion of surviving iCasp9-positive cells, % of the original population",[3],0.7%
same,reduction in the number of human CD3+/GFP+ T cells,[4],> 99%
same,AP20187-treated cells remained viable,[5]; [6],about 5.5%
same,Killing efficiency after correction for baseline viability,[5]; [6],about 92.9%
same,killing efficiency,"[5]; reactivated, CD25 positive cells",about 93%
B1,relative SEAP activity Units (basal activity),HEK293T/16 cells; 1 μg iCasp9 per million cells,179081 relative SEAP activity Units
same,relative SEAP activity Units (basal activity),HEK293T/16 cells; 2 μg iCasp9 per million cells,175529 relative SEAP activity Units
same,basal signaling,HEK293T/16 cells,lower basal signaling
same,cost of higher IC50 to AP1903,HEK293T/16 cells,< 10 fold
B2,relative SEAP activity Units (basal activity),HEK293T/16 cells; 1 μg iCasp9 per million cells,205772 relative SEAP activity Units
same,relative SEAP activity Units (basal activity),HEK293T/16 cells; 2 μg iCasp9 per million cells,174366 relative SEAP activity Units
same,basal signaling,HEK293T/16 cells,lower basal signaling
B3,relative SEAP activity Units (basal activity),HEK293T/16 cells; 1 μg iCasp9 per million cells,148928 relative SEAP activity Units
same,relative SEAP activity Units (basal activity),HEK293T/16 cells; 2 μg iCasp9 per million cells,136863 relative SEAP activity Units
same,basal signaling,HEK293T/16 cells,lower basal signaling
same,cost of higher IC50 to AP1903,HEK293T/16 cells,< 5 fold
